According to patent publication US10988465B2, “CXCR4 inhibitors and uses thereof” (X4 Pharmaceuticals, Inc., priority 2016, dated 2021):
Where two headings read alike, the source gives them in different places.

Legend:
[1] = Mouse brain uptake assay (MBUA), 3 mg/kg IV, 0-1 h, 3 time points; assay type: in vivo, male CD1 mice; conditions: for Kp / clearance / half-life / AUC(0-t) / Kp uu: male; for Kp: CD1, mouse, brain/plasma, iv, 3 mg/kg; for clearance / half-life: CD1, plasma, 3 time points; for clearance / half-life / AUC(0-t) / Kp uu / fraction unbound: mouse; for clearance / half-life / AUC(0-t) / Kp uu: 3 mg/kg IV, 0-1 h; for half-life: read-out: t½ (converted); for AUC(0-t) / Kp uu: CD1; for Kp uu: unbound brain/unbound plasma, read-out: Kp, uu
Protocol: Example 38: Pharmacokinetics and Brain Penetration Experiment to Determine Brain and Plasma Concentrations of Compounds after IV Administration to Male CD1 Mice
The study design (9 animals) consisted of administrating the drug (IV: 3 mg/kg (5 mL/kg) via tail vein injection) and collecting samples at terminal bleeding for plasma and brain at 0.083, 0.5 and 1 h. The IV dosing solution was prepared in 50 mM citrate buffer (pH 4.0) at 0.6 mg/mL. The blood collection was performed as follows: the animal was restrained manually and approximately 150 μL blood/time point was collected into a dipotassium EDTA tube via retro orbital puncture under anesthesia with isoflurane. The blood sample was put on ice and centrifuged to obtain a plasma sample (2000 g, 5 min under 4° C.) within 15 minutes. The brain collection was performed as follows: a mid-line incision was made in the animal's scalp and the skin was retracted. Using small bone cutters and rongeurs, the skull overlying the brain was removed. The brain was removed using a spatula and the brain rinsed with cold saline. The brain was placed in screw-top tubes, and the tubes were stored at −70° C. until analysis.
An aliquot of 30 μL sample was added to 150 μL MeCN containing 50 ng/mL IS (Dexamethasone). The mixture was vortexed for 5 min and centrifuged at 14,000 rpm for 5 min. An aliquot of 5 μL supernatant was injected for LC-MS/MS analysis.
An aliquot of 30 μL brain homogenate (brain:PBS=1:3, w/v) sample was added to 150 μL IS in MeCN (Dexamethasone, 50 ng/mL). The mixture was vortexed for 5 min and centrifuged at 14,000 rpm for 5 min. An aliquot of 5 μL supernatant was injected for LC-MS/MS analysis.
The sample analysis was performed on LCMS/MS-003 (API4000, triple quadruple) under the following conditions: positive ion, ESI, MRM detection using dexamethasone as internal standard. HPLC conditions: mobile phase A: H2O (0.025% formic acid (FA) with 1 mM NH4OAc); mobile phase B: MeOH (0.025% FA with 1 mM NH4OAc) on Waters X-Bridge C18 (2.1×50 mm, 2.5 μm) column at 60° C.

[2] = biological target: T1, CXCR-4 transfected U87 cell line (U87.CXCR4) (Homo sapiens, UniProt P61073); assay: Intracellular CXCL-12-induced calcium mobilization assay (FLIPR); assay type: cell-based; conditions: U87.CXCR4 cells; CXCL-12 25-50 ng/mL; compound added 15 min before; read-out: IC50 CXCL-12 Ca^2+ flux U87.CXCR4+
T1 construct: expressed in transfected cells; host or cells: U87 (U87.CXCR4)
How it was run: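 U87 cells stably expressing human CXCR4, loaded with Fluo-2 AM (4 μM final) for 45 min at 37 °C in HBSS/20 mM HEPES/0.2% BSA, pH 7.4. Calcium flux triggered by CXCL-12 (25-50 ng/mL) was followed by FLIPR fluorescence over time at 37 °C.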

[3] = biological target: T2, Jurkat cells expressing CXCR4 (Homo sapiens, UniProt P61073); assay: Chemokine (CXCL12-AF647) binding inhibition assay; conditions: CXCL12-AF647 25 ng/mL, read-out: IC50 CXCL-12 binding Jurkat
T2 construct: endogenous in cells; host or cells: Jurkat
How it was run: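 Cells in HBSS, 20 mM HEPES, 0.2% BSA, pH 7.4, preincubated 15 min at room temperature with compound, then 25 ng/mL CXCL12-AF647 for 30 min. After washing and paraformaldehyde fixation, bound ligand read by flow cytometry; percent inhibition calculated from MFI relative to unlabeled and ligand-only controls.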

in vitro = conditions: human, Caco-2, pH 7.4
How it was run: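 Caco-2 monolayers, checked by TEER with Lucifer yellow as marker, were dosed with 10 μM compound in HBSS pH 7.4 in A-to-B and B-to-A directions. Incubation was 90 min at 37° C, in duplicate. Samples were quantified by LC-MS/MS and Papp calculated.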

[4] = fraction unbound to brain proteins, read-out: Fu (b) %
[5] = fraction unbound to plasma proteins, read-out: Fu (p) %

T1 sequence (P61073 whole entry): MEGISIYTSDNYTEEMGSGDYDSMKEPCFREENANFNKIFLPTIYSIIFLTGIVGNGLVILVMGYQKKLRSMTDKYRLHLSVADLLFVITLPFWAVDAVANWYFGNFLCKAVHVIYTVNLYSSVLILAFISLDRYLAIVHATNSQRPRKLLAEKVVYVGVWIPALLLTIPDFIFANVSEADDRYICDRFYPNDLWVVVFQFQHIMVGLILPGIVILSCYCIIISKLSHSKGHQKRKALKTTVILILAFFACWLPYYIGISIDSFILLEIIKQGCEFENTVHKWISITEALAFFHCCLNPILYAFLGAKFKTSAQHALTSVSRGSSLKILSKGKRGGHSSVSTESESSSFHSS
T2 sequence (P61073 whole entry): as above

SMILES | Kp [1] | clearance [1] | half-life [1] | AUC(0-t) ([1]; brain, read-out: AUClast (b)) | AUC(0-t) ([1]; plasma, read-out: AUClast (P)) | Kp uu [1] | fraction unbound [1, 4] | fraction unbound [1, 5] | IC50 [2] | IC50 [3] | Papp A→B at 90 min, 10 μM (in vitro) | Papp B→A at 90 min, 10 μM (in vitro) | efflux ratio at 90 min, 10 μM (in vitro)
CN1CCN(c2cccc3nc([C@H]4CCC[C@@H](c5ncccc5Cl)N4C)[nH]c23)CC1 [I-9, 2-((2R,6S)-6-(3-chloropyridin-2-yl)-1-methylpiperidin-2-yl)-7-(4-methylpiperazin-1-yl)-1H-benzo[d]imidazole] | 2.51 | 77.2 mL/min/kg | 16 min | 1510 ng·h/mL | 601 ng·h/mL | 0.73 | 0.016 | 0.055 | 100 to 1000 nM | 0.01 to 100 nM | 10 to 30 ×10⁻⁶ cm/s | 10 to 30 ×10⁻⁶ cm/s | 0.1 to 10
Cc1cccnc1[C@@H]1CCC[C@H](c2nc3cccc(N4CCN(C)C5(CC5)C4)c3[nH]2)N1 [I-132] | 1.66 | 19.7 mL/min/kg | 185 min | 539 ng·h/mL | 323 ng·h/mL | 0.54 | 0.01 | 0.031 | 0.01 to 100 nM | 0.01 to 100 nM | 10 to 30 ×10⁻⁶ cm/s | 10 to 30 ×10⁻⁶ cm/s | 0.1 to 10
Cc1cccnc1[C@@H]1CCC[C@H](c2nc3ccccc3n2CC2CCN(C)CC2)N1C [I-15, 2-((2R,6S)-1-methyl-6-(3-methylpyridin-2-yl)piperidin-2-yl)-1-((1-methylpiperidin-4-yl)methyl)-1H-benzo[d]imidazole] | 0.34 | 282 mL/min/kg | 17.8 min | 55.3 ng·h/mL | 161 ng·h/mL | 0.02 | 0.004 | 0.076 | 0.01 to 100 nM | 0.01 to 100 nM | 0.1 to 10 ×10⁻⁶ cm/s | 10 to 30 ×10⁻⁶ cm/s | 0.1 to 10
